Consider 21 compounds from ChEMBL document CHEMBL3414439, “Design, synthesis and biological evaluation of piperic acid triazolyl derivatives as potent anti-inflammatory agents” (Eur J Med Chem, 2015).

Activity calls are given as the source filed them. The calls are words filed in the database; no cut-off is given here.

Data set [1] has as its system Rattus norvegicus. The data set can be described thus: Antiinflammatory activity in rat assessed as inhibition of carrageenan-induced paw volume at 20 mg/kg, po administered 1 hr prior to carrageenan challenge measured after 5 hrs (reference value: 1.70 +/- 0.020 ml). The format is functional. Background: Carrageenan injected into the paw causes an acute inflammation.

Data set [2] concerns Rattus norvegicus. The data set can be described thus: Antiinflammatory activity in rat assessed as inhibition of carrageenan-induced paw volume at 20 mg/kg, po administered 1 hr prior to carrageenan challenge measured after 3 hrs (reference value: 1.68 +/- 0.029 ml). It counts as functional.
Data set [3] has as its system Rattus norvegicus. The data set is described as follows: Antiinflammatory activity in rat assessed as inhibition of carrageenan-induced paw volume at 20 mg/kg, po administered 1 hr prior to carrageenan challenge measured after 5 hrs relative to vehicle-treated control. It counts as functional.
For data set [4], the system named is Rattus norvegicus. The data set can be described thus: Antiinflammatory activity in rat assessed as inhibition of carrageenan-induced paw volume at 20 mg/kg, po administered 1 hr prior to carrageenan challenge measured after 3 hrs relative to vehicle-treated control. It counts as functional.
Data set [5] relates to Rattus norvegicus. The data set is described as follows: Ulcerogenic effect in Albino Wistar rat assessed as damage in gastric mucosa at 60 mg, po after 5 hrs. It counts as toxicity, organism-based. The note with it: in vivo.
Data set [6] deals with RAW264.7. The data set is described as follows: Antiinflammatory activity against mouse RAW264.7 cells assessed as inhibition of LPS-induced TNFalpha level at 20 uM after 24 hrs by ELISA relative to untreated control. The format is functional. The note with it: RAW264.7, 24 h. (In general: An ELISA detects its analyte on a solid surface through an enzyme-linked reagent.)
Data set [7] in a line: Reduction in carrageenan-induced lipid peroxidation in gastric mucosa tissue (unknown origin) assessed as MDA after 30 mins. It counts as functional, tissue-based.
Data set [8] is described as follows: Inhibition of carrageenan-induced COX-2 expression in paw tissue (unknown origin) by immunohistochemistry. The format is functional.
Data set [9] can be described thus: Inhibition of carrageenan-induced TNFalpha expression in paw tissue (unknown origin) by immunohistochemistry. It counts as functional.
The nature of data set [10]: Cytotoxicity against mouse RAW264.7 cells assessed as cell viability at 20 uM after 24 hrs by MTT assay. The format is cell-based. The note with it: read-out: Activity. (Formazan colour is commonly taken as a measure of viable cells.)
A short description of data set [11]: Inhibition of carrageenan-induced NFkappaB expression in paw tissue (unknown origin) by immunohistochemistry. The format is functional.
In data set [12] the test system is Mus musculus. The data set is described as follows: Analgesic activity in Swiss Albino acetic acid-induced writhing mouse model assessed as protection at 20 mg/kg, po administered 30 mins before to acetic acid challenge measured for 10 mins. The format is functional.
Data set [13] relates to Mus musculus. The data set is described as follows: Analgesic activity in Swiss Albino acetic acid-induced writhing mouse model assessed as number of writhes at 20 mg/kg, po administered 30 mins before to acetic acid challenge measured for 10 mins (reference value: 92.8 +/- 1.49). The format is functional.

Usually inhibition in vivo stands for the percentage by which the read-out fell short of the control. `O=C(/C=C/C=C/c1ccc2c(c1)OCO2)OCc1cn(-c2ccc(Br)cc2)nn1`: the Activity in [1] was 0.87 mL; in data set [2], 0.89 mL. Further, the inhibition in vivo at 20 mg/kg in data set [3] was 55.5%; in [4], 53.6%.

As to `CCOc1ccc(-n2cc(COC(=O)/C=C/C=C/c3ccc4c(c3)OCO4)nn2)cc1`, the Activity in data set [1] was 1.14 mL; in [2], 1.1 mL. Moreover, the inhibition in vivo at 20 mg/kg in data set [3] was determined as 36.5%; in data set [4] it was 32.9%.

As usually defined, the inhibition is the drop in the measured response relative to a control, in per cent. `O=C(/C=C/C=C/c1ccc2c(c1)OCO2)N1CCCCC1` [PIPERINE]: the Activity in [1] is 0.67 mL; in data set [5], “Non-toxic”; in [2], 0.676 mL. For the same compound, the inhibition at 20 µM in [6] amounted to 49.7%. Further, the inhibition in vivo at 20 mg/kg in data set [3] is 54.7%; in data set [4], 53.7%.

`O=C(/C=C/C=C/c1ccc2c(c1)OCO2)OCc1cn(-c2ccccc2Cl)nn1`: the inhibition result in data set [7], in [8], in data set [9] and in [11] was “Active” each time. Also, the Activity is 0.56 mL in data set [1]; “Non-toxic” in data set [5]; 0.58 mL in [2]; 50.64% in data set [12]; 45.8 in [13]. In addition, the viability at 24 h, 20 µM in [10] turned out to be 90%. Also, in data set [6], the inhibition at 20 µM is 73.7%. Moreover, the results for the inhibition in vivo at 20 mg/kg in data set [3] and in [4] were 76.7% and 74.5%, respectively.

As to `COc1ccc2c(c1)c(CC(=O)O)c(C)n2C(=O)c1ccc(Cl)cc1` [INDOMETHACIN], the inhibition result in data set [8], in data set [9] and in data set [11] was “Active” throughout. The Activity in [1] was 0.54 mL; in data set [5] it was “Toxic”; in [2], 0.608 mL; in data set [12] it was 57.43%; in data set [13], 39.4. Moreover, in [10], the viability at 24 h, 20 µM came out at 55%. Also, the inhibition at 20 µM in data set [6] is 68%. The figures for the inhibition in vivo at 20 mg/kg in [3] and in [4] were 77% and 72%, respectively.

In the case of `O=C(/C=C/C=C/c1ccc2c(c1)OCO2)OCc1cn(-c2ccccc2F)nn1`, the Activity stood at 0.65 mL in data set [1], 0.68 mL in data set [2], 48.7% in [12] and 45.8 in [13]. Also, the figures for the inhibition in vivo at 20 mg/kg in [3] and in [4] were 70.8% and 68.2%, respectively.

Consider `O=C(/C=C/C=C/c1ccc2c(c1)OCO2)OCc1cn(-c2ccc([N+](=O)[O-])cc2)nn1`, for which the Activity in data set [1] amounted to 1.37 mL; in data set [2], 1.39 mL. Moreover, the values for the inhibition in vivo at 20 mg/kg in [3] and in [4] were 22.1% and 19.6%, respectively.

Take `O=C(/C=C/C=C/c1ccc2c(c1)OCO2)OCc1cn(-c2cccc(Cl)c2)nn1`: the Activity in data set [1] was found to be 0.69 mL; in [2], 0.71 mL. In addition, the figures for the inhibition in vivo at 20 mg/kg in data set [3] and in data set [4] were 67.8% and 64.7%, respectively.

For `O=C(/C=C/C=C/c1ccc2c(c1)OCO2)OCc1cn(-c2ccc(Cl)cc2Cl)nn1`, the inhibition result in data set [7] is “Active”. Also, the Activity in data set [1] was 0.622 mL; in [5], “Non-toxic”; in data set [2] it was 0.64 mL; in data set [12], 45.04%; in [13] it was 51. For the same compound, in data set [10], the viability at 24 h, 20 µM is 90%. Moreover, the inhibition at 20 µM in data set [6] came to 60.7%. Further, the inhibition in vivo at 20 mg/kg in data set [3] is 71.2%; in [4], 69.3%.

Consider `O=C(/C=C/C=C/c1ccc2c(c1)OCO2)OCc1cn(-c2ccc(F)cc2)nn1`, for which the Activity in data set [1] worked out at 0.85 mL; in [2] it was 0.87 mL. Also, the inhibition in vivo at 20 mg/kg in data set [3] stood at 57%; in data set [4], 55.5%.

For the compound `Cc1ccc(-n2cc(COC(=O)/C=C/C=C/c3ccc4c(c3)OCO4)nn2)cc1C`, the Activity in data set [1] was determined as 0.66 mL; in [2], 0.68 mL; in data set [12], 44.93%; in data set [13], 51.2. For the same compound, the inhibition in vivo at 20 mg/kg in [3] stood at 70.3%; in [4] it was 67.9%.

As to `O=C(/C=C/C=C/c1ccc2c(c1)OCO2)OCc1cn(-c2ccccc2Br)nn1`, the inhibition entry in data set [7], in data set [8], in data set [9] and in data set [11] was “Active” each time. Further, the Activity in data set [1] is 0.51 mL; in data set [5], “Non-toxic”; in [2], 0.56 mL; in data set [12], 54.09%; in data set [13], 42.6. Also, in data set [10], the viability at 24 h, 20 µM was 90%. In addition, the inhibition at 20 µM in data set [6] was found to be 70.6%. For the same compound, the values for the inhibition in vivo at 20 mg/kg in data set [3] and in data set [4] were 80.4% and 76.1%, respectively.

For the compound `O=C(/C=C/C=C/c1ccc2c(c1)OCO2)OCc1cn(-c2ccccc2)nn1`, the Activity in data set [1] was 1.11 mL; in data set [2] it was 1.12 mL. In addition, the inhibition in vivo at 20 mg/kg amounted to 38.5% in data set [3] and 37% in data set [4].

Turning to `Cc1ccccc1-n1cc(COC(=O)/C=C/C=C/c2ccc3c(c2)OCO3)nn1`, the Activity in [1] worked out at 0.88 mL; in data set [2], 0.91 mL. In addition, the inhibition in vivo at 20 mg/kg in [3] was found to be 54.6%; in [4], 51.5%.

As to `COc1ccccc1-n1cc(COC(=O)/C=C/C=C/c2ccc3c(c2)OCO3)nn1`, the Activity is 0.72 mL in data set [1] and 0.76 mL in data set [2]. The results for the inhibition in vivo at 20 mg/kg in [3] and in [4] were 65% and 61.6%, respectively.

For the compound `CCc1ccc(-n2cc(COC(=O)/C=C/C=C/c3ccc4c(c3)OCO4)nn2)cc1`, the Activity in data set [1] was determined as 0.8 mL; in [2], 0.83 mL. Moreover, the inhibition in vivo at 20 mg/kg in data set [3] amounted to 60%; in [4] it was 57.5%.

For `COc1ccc(-n2cc(COC(=O)/C=C/C=C/c3ccc4c(c3)OCO4)nn2)cc1`, the Activity in data set [1] came out at 0.86 mL; in data set [2] it was 0.88 mL. Besides, the results for the inhibition in vivo at 20 mg/kg in [3] and in data set [4] were 55.9% and 54%, respectively.

On to `O=C(/C=C/C=C/c1ccc2c(c1)OCO2)OCc1cn(-c2ccc(Cl)c(Cl)c2)nn1`, for which the inhibition result in [7] was “Active”. For the same compound, the Activity was 0.588 mL in data set [1]; “Non-toxic” in data set [5]; 0.632 mL in [2]; 50% in [12]; 46.4 in [13]. Moreover, the viability at 24 h, 20 µM in data set [10] was determined as 90%. Besides, the inhibition at 20 µM in data set [6] was 63.6%. Also, the inhibition in vivo at 20 mg/kg in [3] came to 73%; in data set [4], 69.6%.

With `O=C(/C=C/C=C/c1ccc2c(c1)OCO2)OCc1cn(-c2ccc(Cl)cc2)nn1`, the values for the Activity in data set [1] and in data set [2] were 0.81 mL and 0.83 mL, respectively. The inhibition in vivo at 20 mg/kg in [3] is 59.7%; in [4], 57.5%.

On to `Cc1ccc(-n2cc(COC(=O)/C=C/C=C/c3ccc4c(c3)OCO4)nn2)cc1`, for which the Activity was determined as 0.98 mL in data set [1] and 1.01 mL in [2]. Besides, the inhibition in vivo at 20 mg/kg worked out at 49.1% in data set [3] and 46.2% in data set [4].

For the compound `O=C(/C=C/C=C/c1ccc2c(c1)OCO2)OCc1cn(-c2cccc([N+](=O)[O-])c2)nn1`, the results for the Activity in data set [1] and in [2] were 1.46 mL and 1.44 mL, respectively. Also, the inhibition in vivo at 20 mg/kg in data set [3] came to 15.4%; in data set [4], 15.6%.
